Here are results for 13 compounds from PMC6259277, “Synthesis, Gastroprotective Effect and Cytotoxicity of New Amino Acid Diterpene Monoamides and Diamides” (Molecules, 2010).

As a reminder, the IC50 is the concentration that inhibits the measured activity by half. Low readings indicate higher potency, high ones lower potency.

The nature of data set [1]: Cytotoxicity, neutral red uptake assay, Hep G2. The settings on record: human, Hep G2 cells, confluent monolayers, confluent cultures, 0-1000 µM, mean ± SD. The format is cell-based. As for the experimental part:
(§1) Human normal lung fibroblasts MRC-5 (ATCC CCL-171) and Hep G2 cells (ATCC HB-8065) were grown as monolayers in minimum essential Eagle´s medium (MEM), with Earle's salts, 2.0 mM L-glutamine (Sigma Chemical Co.) and 2.0 g/L sodium bicarbonate (Sigma Chemical Co.), supplemented with 10% heat-inactivated fetal bovine serum (FBS), 100 IU/mL penicillin and 100 µg/mL streptomycin in a humidified incubator with 5% CO2 in air at 37 °C. Cell passage was maintained between 10 and 16 for MRC-5 and between 79 and 82 for Hep G2 cells. The medium was changed every 2 days. Culture media, antibiotics and FBS were obtained from Invitrogen Corp.
(§2) Confluent cultures of MRC-5, AGS and Hep G2 cells were treated with medium containing the compounds at concentrations ranging from 0 up to 1000 µM. The products were first dissolved in DMSO and then in the corresponding culture medium supplemented with 2% FBS. The final content of DMSO in the test medium and controls was 1%. Cells were exposed for 24 h to the assayed compounds. Untreated cells served as controls. Each concentration was tested in quadruplicate together with the control and repeated three times in separate experiments. At the end of the incubation, the neutral red uptake (NRU) assay was carried out to determine cell viability. To calculate the IC50 values (concentration that produces a 50% inhibitory effect on the evaluated parameter) the results were transformed to percentage of controls and the IC50 value was graphically obtained from the dose-response curves.

A short description of data set [2]: Cytotoxicity, neutral red uptake assay, MRC-5. Format: cell-based. The note with it: human, MRC-5 normal lung fibroblasts, confluent monolayers, confluent cultures, 0-1000 µM, mean ± SD. On the procedure: as §1, §2
Data set [3] concerns ethanol/HCl-induced gastric lesions. The data set is described as follows: Ethanol/HCl-induced gastric lesion (ulcer) model in mice. Format: in vivo. The settings on record: for inhibition in vivo at 25 mg/kg: Mus musculus, po, read-out: Gastroprotective effect: % Lesion reduction; for Gastroprotective effect: Lesion index: mean ± SD, sum of lesion lengths. On the procedure:
The gastroprotective activity of the compounds was determined in the ethanol/HCl-induced lesion model in mice. The purity of the tested compounds was higher than 95% by NMR analysis. Male Swiss albino mice weighing 30 ± 3 g were used. Animals were fed on certified Champion diet with free access to water under standard conditions of 12 h dark-light period, 50% relative humidity and 22 °C room temperature. Mice were randomly distributed into groups of eight animals each and fasted for 24 h with free access to water previous to the experiment. Fasting prior to ulcerogenic assays was used because 0.2 mL of the reference antisecretory drug lansoprazole (2-[[[3-methyl-4-(2,2,2-trifluroethoxy)-2-pyridyl]methyl]sulfinyl]benzimidazole) and the amides were administered orally. To keep the animal number to a minimum, dose-response studies were performed with the leucine derivatives 13 and 18 to set the conditions for single-dose comparison of gastroprotective effect. For the selected parent compounds, three doses were used: 25, 50 and 100 mg/kg. Fifty min after oral administration of the compounds, lansoprazole (20 mg/kg) or the vehicle (12% Tween 80, 10 mL/kg), all groups were orally treated with 0.2 mL of a solution containing 60% ethanol/0.3 M HCl (ethanol/HCl) for gastric lesion induction. Animals were sacrificed by cervical dislocation 1 h after the administration of ethanol/HCl, and the stomachs excised and inflated by injection of 5% formalin (1 mL). The ulcerated stomachs were fixed in 5% formalin for 30 min and opened along the greater curvature. The length (mm) of each lesion was measured, and the lesion index expressed as the sum of the length of all lesions. For comparison purposes, the products 1-5, 7-12, 14-16, 19 and 20 were assessed at a single oral dose of 25 mg/kg. The protocols were approved by the Universidad de Talca Institutional Animal Care and Use Committee, which follows the recommendations of the Canadian Council on Animal Care. Tween 80 and lansoprazole (> 98% purity by HPLC) were purchased from Sigma Chemical Co.
Results were expressed as the mean ± SD. In all experiments, statistical differences between several treatments and their respective control were determined by one-way analysis of variance (ANOVA) and when the F value was significant, post hoc differences were determined by the Dunnett's multiple comparison test. The level of significance was set at P < 0.05. All statistical analyses were performed using the software Statistica 5.1 (StatSoft, Inc.) and Statistical Package S-Plus 2000.

Data set [4] in a line: Cytotoxicity, neutral red uptake assay, AGS. Format: cell-based. The note with it: human, AGS gastric adenocarcinoma cells, confluent monolayers, confluent cultures, 0-1000 µM, mean ± SD. As for the experimental part:
as §2, with “Human gastric adenocarcinoma cells AGS (ATCC CRL-1739) were grown as monolayers in Ham F-12 medium containing 1.0 mM L-glutamine and 1.5 g/L sodium bicarbonate, supplemented with 10% heat-inactivated FBS, 100 IU/mL penicillin and 100 µg/mL streptomycin in a humidified incubator with 5% CO2 in air at 37 °C. The cell passage was maintained between 42 and 48. The medium was changed every 2 days. Confluent” for “Confluent”

Where [5] appears, read: single oral dose 25 mg/kg, compared with untreated controls.

A value given as a limit tells only on which side of the number the result lay.

Take `COC(=O)CNC(=O)C[C@H](C)CCC1=C(C)CCC2[C@@](C)(C(=O)O)CCC[C@]12C` (stereo partly shown) [Compound 1, Labd-8(9)-en-15,19-dioic acid, 15-glycyl methyl ester amide]: the IC50 at 24 h in data set [1] is 242 ± 13 µM; in data set [2], 447 ± 26 µM; in data set [4] it was 189 ± 9 µM. In data set [3] (setting [5]), the inhibition in vivo at 25 mg/kg turned out to be 73.3%. Also, in data set [3] (single oral dose 25 mg/kg), the “Gastroprotective effect: Lesion index” value was determined as 12.3 ± 7.6 mm.
On to `COC(=O)[C@@H](NC(=O)C[C@H](C)CCC1=C(C)CCC2[C@@](C)(C(=O)O)CCC[C@]12C)C(C)C` (stereo partly shown) [Compound 2, Labd-8(9)-en-15,19-dioic acid, 15-valyl methyl ester amide], for which the IC50 at 24 h in data set [1], in data set [2] and in data set [4] was more than 1000 µM throughout. Besides, the inhibition in vivo at 25 mg/kg in data set [3] (setting [5]) came out at 58.5%. The “Gastroprotective effect: Lesion index” value in data set [3] (single oral dose 25 mg/kg) came out at 19.1 ± 8.3 mm.
Take `COC(=O)[C@H](CC(C)C)NC(=O)C[C@H](C)CCC1=C(C)CCC2[C@@](C)(C(=O)O)CCC[C@]12C` (stereo partly shown) [Compound 3, Labd-8(9)-en-15,19-dioic acid, 15-leucyl methyl ester amide]: the IC50 at 24 h in data set [1] was 806 ± 32 µM; in data set [2], more than 1000 µM; in data set [4], 445 ± 27 µM. In addition, the inhibition in vivo at 25 mg/kg in data set [3] (setting [5]) was 72.6%. For the same compound, the “Gastroprotective effect: Lesion index” value in data set [3] (single oral dose 25 mg/kg) is given as 12.6 ± 6.8 mm.
For `COC(=O)[C@@H]1CCCN1C(=O)C[C@H](C)CCC1=C(C)CCC2[C@@](C)(C(=O)O)CCC[C@]12C` (stereo partly shown) [Compound 4, Labd-8(9)-en-15,19-dioic acid, 15-prolyl methyl ester amide], the IC50 at 24 h in data set [1] came to 321 ± 14 µM; in data set [2], 288 ± 11 µM; in data set [4], 167 ± 7 µM. In addition, the inhibition in vivo at 25 mg/kg in data set [3] (setting [5]) worked out at 70.9%. For the same compound, the “Gastroprotective effect: Lesion index” value in data set [3] (single oral dose 25 mg/kg) came out at 13.4 ± 6.8 mm.
With `COC(=O)[C@H](Cc1c[nH]c2ccccc12)NC(=O)C[C@H](C)CCC1=C(C)CCC2[C@@](C)(C(=O)O)CCC[C@]12C` (stereo partly shown) [Compound 5, Labd-8(9)-en-15,19-dioic acid, 15-tryptophanyl methyl ester amide], the IC50 at 24 h in data set [1] came out at 291 ± 11 µM; in data set [2], 260 ± 15 µM; in data set [4], 149 ± 7 µM. In addition, in data set [3] (setting [5]), the inhibition in vivo at 25 mg/kg was 25.4%. In addition, the “Gastroprotective effect: Lesion index” value in data set [3] (single oral dose 25 mg/kg) is given as 34.3 ±12.0 mm.
Taken in the same sequence, the figures for `COC(=O)[C@@H]1CCCN1C(=O)[C@@]1(C)CCC[C@]2(C)C(CC[C@@H](C)CC(=O)O)=C(C)CCC12` (stereo partly shown) [Compound 7, Labd-8(9)-en-15,19-dioic acid, 19-prolyl methyl ester amide] were 364 ± 15 µM, 459 ± 32 µM, 266 ± 16 µM, 53.9% and 21.2 ± 9.5 mm.
The corresponding values for `COC(=O)CNC(=O)C[C@H](C)CCC1=C(C)CCC2[C@@](C)(C(=O)NCC(=O)OC)CCC[C@]12C` (stereo partly shown) [Compound 8, Labd-8(9)-en-15,19-dioic acid, 15,19-diglycyl methyl ester amide] are 841 ± 42 µM, 890 ± 45 µM, 592 ± 30 µM, 62% and 17.5 ± 9.9 mm.
The corresponding values for `COC(=O)[C@@H]1CCCN1C(=O)C[C@H](C)CCC1=C(C)CCC2[C@@](C)(C(=O)N3CCC[C@H]3C(=O)OC)CCC[C@]12C` (stereo partly shown) [Compound 9, Labd-8(9)-en-15,19-dioic acid, 15,19-diprolyl methyl ester amide] are 67 ± 3 µM, 119 ± 7 µM, 82 ± 4 µM, 60% and 18.4 ± 11.3 mm.
As for `COC(=O)[C@H](Cc1c[nH]c2ccccc12)NC(=O)C[C@H](C)CCC1=C(C)CCC2[C@@](C)(C(=O)N[C@@H](Cc3c[nH]c4ccccc34)C(=O)OC)CCC[C@]12C` (stereo partly shown) [Compound 10, Labd-8(9)-en-15,19-dioic acid, 15,19-ditryptophanyl methyl ester amide], the IC50 at 24 h in data set [1], in data set [2] and in data set [4] was more than 1000 µM in each case. Besides, the inhibition in vivo at 25 mg/kg in data set [3] (setting [5]) turned out to be 61.7%. In data set [3] (single oral dose 25 mg/kg), the “Gastroprotective effect: Lesion index” value stood at 17.6 ± 7.8 mm.
`C=C1CCC2[C@](C)(CCC[C@]2(C)C(=O)O)[C@H]1CC[C@@H](C)CC(=O)NCC(=O)OC` (stereo partly shown) [Compound 11, Labd-8(17)-en-15,19-dioic acid, 15-glycyl methyl ester amide]: the IC50 at 24 h in data set [1] is 541 ± 22 µM; in data set [2], more than 1000 µM; in data set [4], 361 ± 18 µM. Also, the inhibition in vivo at 25 mg/kg in data set [3] (setting [5]) is 71.9%. Besides, in data set [3] (single oral dose 25 mg/kg), the “Gastroprotective effect: Lesion index” value is 12.9 ± 8.1 mm.
Taken in the same sequence, the figures for `C=C1CCC2[C@](C)(CCC[C@]2(C)C(=O)O)[C@H]1CC[C@@H](C)CC(=O)N[C@H](C(=O)OC)C(C)C` (stereo partly shown) [Compound 12, Labd-8(17)-en-15,19-dioic acid, 15-valyl methyl ester amide] were 673 ± 34 µM, 380 ± 19 µM, 309 ± 18 µM, 66.5% and 15.4 ± 8.8 mm.
Take `C=C1CCC2[C@](C)(CCC[C@]2(C)C(=O)O)[C@H]1CC[C@@H](C)CC(=O)N[C@@H](CC(C)C)C(=O)OC` (stereo partly shown) [Compound 13, Labd-8(17)-en-15,19-dioic acid, 15-leucyl methyl ester amide]: the IC50 at 24 h stood at 808 ± 48 µM in data set [1], 449 ± 29 µM in data set [2] and 308 ± 17 µM in data set [4]. Further, the inhibition in vivo at 25 mg/kg in data set [3] (setting [5]) is approximately 65.6%. Moreover, the “gastric lesion reduction at the higher doses” value in data set [3] (dose-response study, higher oral doses (50 and 100 mg/kg)) is 79-89%. Besides, the “Gastroprotective effect: % Lesion reduction” value in data set [3] (single oral dose 25 mg/kg, compared with untreated controls, 25 mg/kg) came to 65.6%. Moreover, in data set [3] (single oral dose 25 mg/kg, 25 mg/kg), the “Gastroprotective effect: Lesion index” value came to 15.8 ± 6.2 mm.
On to `C=C1CCC2[C@](C)(CCC[C@]2(C)C(=O)O)[C@H]1CC[C@@H](C)CC(=O)N1CCC[C@H]1C(=O)OC` (stereo partly shown) [Compound 14, Labd-8(17)-en-15,19-dioic acid, 15-prolyl methyl ester amide], for which the results for the IC50 at 24 h in data set [1], in data set [2] and in data set [4] were 894 ± 56 µM, more than 1000 µM and 297 ± 14 µM, respectively. Besides, the inhibition in vivo at 25 mg/kg in data set [3] (setting [5]) stood at 59.8%. Further, the “Gastroprotective effect: Lesion index” value in data set [3] (single oral dose 25 mg/kg) is reported as 18.5 ± 11.8 mm.
